# Test results as given in patent US9557319B2, “Cell-based arrays, methods of making, and methods of using” (University of Florida Research Foundation, Inc., priority 2010, dated 2017).
# Where two headings read alike, the source gives them in different places. Marks after values point to notes of the source that are not given here.
# Experiments:
# CA2 CCSCs = experiment: CA2 patient-derived CCSC proliferation on drug-eluting microarray; type: cell-based, human; conditions: for proliferation with increasing drug exposure: CA2 cells, single drug; for drug sensitivity (1/D50) / Emax: non-proliferation
# Method: ALDH^high spheres were generated from tumor cells obtained from patients with colon cancer. Isolated cells were cultured in serum-free media as previously described^14 (reference 14 is hereby incorporated by reference herein with respect to methods for culturing cells in serum-free media). Using these cultures, adherent cell growth was established with 0.1% gelatin (Millipore) coatings on tissue culture plates (TPP, Switzerland) and the cells were serially propagated. For CA1 and CA2 cells, 25,000 cells were tested per array. Cells were seeded in PBS with 0.1% gelatin and treated identically to the microarrays with HCT116.
# (§1) Camptothecin-loaded microarrays were stained with Annexin V (BD Pharminigen), fixed in 4% paraformaldehyde, and placed in PBS with Hoechst dye 34580 (Invitrogen, USA) for 30 min. Azide-loaded microarrays were fixed with 4% paraformaldehyde and incubated with PBS containing Hoechst 34580 dye. Finally, nutlin-3a-loaded microarrays were fixed with 4% paraformaldehyde, stained with BrdU (BD Bioscience, San Jose, Calif.), and incubated in PBS containing Hoechst 34580 dye. All arrays were mounted with Fluoro-Gel (Electron Microscope Sciences, Hatfield, Pa.) and imaged using an Axiovert 200M microscope (Carl Zeiss, Oberkochen, Germany). Analysis was performed with Axiovision (Carl Zeiss, Oberkochen, Germany) by quantifying, in each drug-eluting island, the area of fluorescence and reported as relative fluorescence intensity (RFI).
# (§2) Proliferation values were normalized to control (0 μM drug). Values for concentration-response curves were transformed to non-proliferation by subtracting the normalized value from 100%. Curve fitting analysis was performed to obtain Emax and D50 values using the equation E=E0+(Emax×D)/(D+D50) where E is the effect (either non-proliferation or apoptosis), E0 is the initial value, Emax is the maximum effect, D is the dose, and D50 is the dose at which a 50% maximum effect (Emax) is observed^34. Drug sensitivity values were obtained by taking the inverse of the D50 and multiplying by 100. Those values marked with “#” indicate that the r^2 value of the curve-fit was below 0.65. N/A values are present where negative parameters were obtained.
# HCT116 cells [1] = experiment: HCT116 apoptosis (annexin V) on drug-eluting cellular microarray; type: cell-based, human; conditions: for drug sensitivity (1/D50) / Emax: apoptosis; for Emax: Homo sapiens, HCT-116, Camptothecin dose response
# Source text: (§3) Glass coverslips were cleaned in an oxygen plasma etcher (Terra Universal, Fullerton, Calif.). Arrays of isolated spots of (3-Aminopropyl) trimethoxysilane (NH2-terminated silane) (Sigma-Aldrich, St. Louis, Mo.) were robotically printed on clean coverslips using a Calligrapher Miniarrayer printer (Bio-Rad, Hercules, Calif.) with 1500 μm center to center distances and a pin diameter of 400 μm. The silane printed coverslips were then coated with 175 Å of titanium (Ti; 99.995% pure) and 225 Å of gold (Au; 99.999% pure) (Williams Advanced Materials, Buffalo, N.Y.). Following coating, gold-coated arrays were sonicated to remove gold from the amine spots, exposing NH2-terminated silane islands. The coverslips were incubated with 0.1 M, methyl-terminated alkanethiol (CH3(CH2)11SH) (Sigma) for 30 min. Substrates were incubated in 10% Pluronic® F-127 (BASF Corporation, USA) for 3 h and 1% heat-denatured BSA for 30 min to create a non-fouling surface around the adhesive amine islands. Three layers of the drug-loaded ethylene vinyl acetate (EVA) polymers were printed over the amine islands and placed in a desiccator between each successive layer. Poly-d-lysine (0.1%) was over-spotted onto the EVA films to promote cell attachment. […] Schematic diagrams of the arrays are illustrated in FIGS. 6A and 6B.
# (§4) HCT116 (p53+/+, ATCC, Manassas, Va.) human colon cancer cells were maintained in McCoy's 5a Medium supplemented with 10% fetal bovine serum (Thermo Scientific, Waltham, Mass.), 1% penicillin G and 1% streptomycin (Thermo Scientific). The cells were cultured at 37° C. in a humidified incubator containing 5% CO2. Following microarray fabrication, 100,000 HCT116 cells were seeded over each array in 3 ml serum-free media and allowed to incubate on a rocking plate at room temperature until cell attachment to the EVA islands occurred, with minimal attachment to background, typically 10-15 min. Microarrays were gently washed in PBS, placed in a 35 mm petri dish with complete media, and placed in an incubator for 24-72 h.
# as §1, §2
# (§5) Hyperbolic curve fits were generated for the dose responses from a first drug in the presence of a fixed amount of a second drug for each combination (Tables 2 and 3, below). […]
# HCT116 cells [2] = experiment: HCT116 proliferation (BrdU) on drug-eluting cellular microarray; type: cell-based, human; conditions: for drug sensitivity (1/D50) / Emax: non-proliferation, 24 h
# Source text: as §3, §4, §1, §2, §5
# [3] = Loading efficiency of small molecules in microarrayed EVA films; type: physicochemical
# Method: To embed molecules into the polymer matrix, they were first dissolved in an appropriate solvent, depending on their respective hydrophobicity. A stock solution of azide (99%, Acros), a hydrophilic molecule, was dissolved in dH2O whereas Nutlin-3a (EMD Chemicals, Gibbstown, N.J.) and camptothecin (Sigma), both hydrophobic molecules, were dissolved in DMSO. Dissolved drugs were then added to 5% EVA at a 1:10 ratio of solvent:EVA. Prior to printing, polymer mixtures were vortexed for 30 s and then homogenized for 1 min before being loaded onto the source plate of the robotic mini-arrayer.
# To determine the loading efficiency of factors, polymer formulations were made as described above. Films derived from 100 μl EVA loaded with factors were then made on glass coverslips and allowed to dry overnight under vacuum. Films were removed from the glass substrates and weighed. Films were washed briefly with PBS before being placed in 1 ml toluene to dissolve the polymer. Samples were then analyzed using a Nanodrop-ND-1000 spectrophotometer. Standard curves were generated for each factor, and loading efficiency was calculated as the percent of drug embedded in the polymer compared to the theoretical drug concentration.
# [4] = Drug release from microarrayed drug-loaded EVA islands; type: physicochemical; conditions: release from drug-loaded EVA microarray, followed by steady release
# Method: For drug release studies, polymer formulations were again made as described above. Glass coverslips were weighed prior to printing. Arrays consisting of 900 drug-loaded polymer islands were manufactured and allowed to dry overnight. Samples were weighed and placed in 3 ml of PBS containing 0.1% Tween-80 at 37° C. with gentle agitation. Samples were taken at the specified times and analyzed.
# [5] = Camptothecin dose response, 2nd drug NUT 0 μM
# [6] = Camptothecin dose response, 2nd drug NUT 1 μM
# [7] = Camptothecin dose response, 2nd drug NUT 25 μM
# [8] = Nutlin dose response, 2nd drug CPT 0 μM, CA2
# [9] = Nutlin dose response, 2nd drug CPT 1 μM, CA2
# [10] = Nutlin dose response, 2nd drug CPT 10 μM, CA2
# [11] = Nutlin dose response, 2nd drug CPT 50 μM, CA2
# [12] = Nutlin dose response, 2nd drug CPT 10 μM
# [13] = Nutlin dose response, 2nd drug CPT 50 μM
# [14] = Nutlin dose response, 2nd drug CPT 1 μM
smiles,measurement,setting,value
CC[C@@]1(O)C(=O)OCc2c1cc1n(c2=O)Cc2cc3ccccc3nc2-1 [Camptothecin],proliferation with increasing drug exposure,CA2 CCSCs,decreasing proliferation
same,drug sensitivity (1/D50),"CA2 CCSCs; Camptothecin dose response, 2nd drug NUT 0 μM, CA2",133 +/− 5.3* ^
same,drug sensitivity (1/D50),"CA2 CCSCs; Camptothecin dose response, 2nd drug NUT 1 μM, CA2",1.60 +/− 7.9* ^
same,drug sensitivity (1/D50),"CA2 CCSCs; Camptothecin dose response, 2nd drug NUT 125 μM, CA2",0.00 +/− 1.01^#
same,Emax,"CA2 CCSCs; Homo sapiens, Camptothecin dose response, 2nd drug NUT 0 μM, CA2, read-out: Emax",46.6%
same,Emax,"CA2 CCSCs; Homo sapiens, Camptothecin dose response, 2nd drug NUT 1 μM, CA2, read-out: Emax",52.3%
same,Emax,"CA2 CCSCs; Homo sapiens, Camptothecin dose response, 2nd drug NUT 25 μM, CA2, read-out: Emax",43.9%
same,decrease in the Emax of the camptothecin concentration response curve,"HCT116 cells [1]; 125 μM nutlin-3a compared to 0 μM nutlin-3a, HCT116 apoptosis",65%
same,proportion of HCT116 cells undergoing apoptosis on single-drug microarray,HCT116 cells [1]; 72 h incubation,greater with increasing concentrations
same,drug sensitivity (1/D50),HCT116 cells [1]; [5],2.53 +/− 1.1
same,drug sensitivity (1/D50),HCT116 cells [1]; [6],83.3 +/− 76
same,drug sensitivity (1/D50),HCT116 cells [1]; [7],15.9 +/− 2.8
same,Emax,HCT116 cells [1]; 2nd drug NUT 0 μM,21.6%
same,Emax,HCT116 cells [1]; 2nd drug NUT 1 μM,12.8%
same,Emax,HCT116 cells [1]; 2nd drug NUT 25 μM,9.31%
same,Emax,HCT116 cells [1]; 2nd drug NUT 125 μM,7.46%
same,increase in sensitivity to camptothecin in presence of nutlin-3a,"HCT116 cells [2]; 125 μM nutlin compared to 0 μM nutlin, HCT116 proliferation",over 16 fold
same,drug sensitivity (1/D50),HCT116 cells [2]; [5],4.83 +/− 0.54*
same,drug sensitivity (1/D50),"HCT116 cells [2]; Camptothecin dose response, 2nd drug NUT 0 μM, listed as camptothecin",4.83
same,drug sensitivity (1/D50),HCT116 cells [2]; [6],5.65 +/− 5.2
same,drug sensitivity (1/D50),HCT116 cells [2]; [7],12.1 +/− 18
same,drug sensitivity (1/D50),"HCT116 cells [2]; Camptothecin dose response, 2nd drug NUT 125 μM",78.1 +/− 26*
same,drug sensitivity (1/D50),"HCT116 cells [2]; Camptothecin dose response, 2nd drug NUT 125 μM, listed as camptothecin",78.1
same,Emax,"HCT116 cells [2]; Homo sapiens, HCT-116, 24 h, Camptothecin dose response, 2nd drug NUT 0 μM, read-out: Emax",86.4%
same,Emax,"HCT116 cells [2]; Homo sapiens, HCT-116, 24 h, Camptothecin dose response, 2nd drug NUT 1 μM, read-out: Emax",88.8%
same,Emax,"HCT116 cells [2]; Homo sapiens, HCT-116, 24 h, Camptothecin dose response, 2nd drug NUT 25 μM, read-out: Emax",86.3%
same,Emax,"HCT116 cells [2]; Homo sapiens, HCT-116, 24 h, Camptothecin dose response, 2nd drug NUT 125 μM, read-out: Emax",79.1%
same,Loading efficiency (%),[3],92 +/− 3%
same,burst release duration,[4],approximately 24 h
COc1ccc(C2=N[C@@H](c3ccc(Cl)cc3)[C@@H](c3ccc(Cl)cc3)N2C(=O)N2CCNC(=O)C2)c(OC(C)C)c1 [Nutlin-3a],decrease in Emax of the concentration response curve to nutlin-3a,"CA2 CCSCs; 50 μM camptothecin present vs nutlin-3a alone, CA2, not significant (p=0.097)",53%
same,proliferation with increasing drug exposure,CA2 CCSCs,decreasing proliferation
same,Emax,CA2 CCSCs; [8],73.3 +/− 9.3*
same,drug sensitivity (1/D50),CA2 CCSCs; [8],171 +/− 49 ^
same,Emax,CA2 CCSCs; [9],43.8 +/− 11
same,drug sensitivity (1/D50),CA2 CCSCs; [9],189 +/− 328 ^
same,Emax,CA2 CCSCs; [10],57.0 +/− 39
same,drug sensitivity (1/D50),CA2 CCSCs; [10],0.95 +/− 4.6^#
same,Emax,CA2 CCSCs; [11],34.1 +/− 9.3*
same,drug sensitivity (1/D50),CA2 CCSCs; [11],303 +/− 260 ^
same,drug sensitivity (1/D50),HCT116 cells [1]; [12],2.48 +/− 0.83
same,drug sensitivity (1/D50),HCT116 cells [1]; [13],143 +/− 98
same,effect on proportion of HCT116 cells that underwent apoptosis,"HCT116 cells [1]; administered alone, microarray",no effect
same,proportion of HCT116 cells that underwent apoptosis,"HCT116 cells [1]; nutlin-3a alone, 125 μM loading",5.6%
same,increase in sensitivity to nutlin-3a on addition of camptothecin,"HCT116 cells [2]; 50 μM CPT compared to 0 μM CPT, HCT116 proliferation",over 5 fold
same,cell cycle arrest (ratio of non-proliferating cells) on single-drug microarray,"HCT116 cells [2]; HCT116, 24 h",dose-dependent cell cycle arrest
same,Emax,"HCT116 cells [2]; Nutlin dose response, 2nd drug CPT 0 μM",108 +/− 110
same,drug sensitivity (1/D50),"HCT116 cells [2]; Nutlin dose response, 2nd drug CPT 0 μM, listed as Nutlin",3.00 +/− 0.49*
same,drug sensitivity (1/D50),"HCT116 cells [2]; Nutlin dose response, 2nd drug CPT 0 μM, listed as nutlin-3a",3.0
same,Emax,HCT116 cells [2]; [14],96.1 +/− 25
same,drug sensitivity (1/D50),HCT116 cells [2]; [14],1.78 +/− 1.7
same,Emax,HCT116 cells [2]; [12],86.5 +/− 19
same,drug sensitivity (1/D50),HCT116 cells [2]; [12],2.97 +/− 3.7
same,Emax,HCT116 cells [2]; [13],81.4 +/− 1.9
same,drug sensitivity (1/D50),"HCT116 cells [2]; Nutlin dose response, 2nd drug CPT 50 μM, listed as Nutlin",19.6 +/− 12
same,drug sensitivity (1/D50),"HCT116 cells [2]; Nutlin dose response, 2nd drug CPT 50 μM, listed as nutlin-3a",19.6
same,Loading efficiency (%),[3],81 +/− 7%
same,burst release duration,[4],approximately 8 h
